# In PubChem BioAssay (NCI):
#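 Cultured in 96-well plates, cells were exposed to test compound for 48 hours across five concentrations. GI50 is the concentration that inhibits growth by half. Definition used: TGI = concentration required for complete inhibition of growth.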
# Key:
# Assay in all cases: growth of human tumour cells (NCI), 48 h
# [1] = test system: PC-3 prostate
# [2] = test system: OVCAR-5 ovarian
# [3] = test system: M14 melanoma
# [4] = test system: NCI-H23 lung
# [5] = test system: NCI/ADR-RES ovarian
# [6] = test system: 786-0 renal
# [7] = test system: A549 NSCLC
# [8] = test system: LOX IMVI melanoma
# [9] = test system: NCI-H460 lung
# [10] = test system: A498 renal
Compound,GI50 [1] [µM],TGI [1] [µM],GI50 [2] [µM],TGI [2] [µM],GI50 [3] [µM],TGI [3] [µM],GI50 [4] [µM],TGI [4] [µM],GI50 [5] [µM],TGI [5] [µM],GI50 [6] [µM],TGI [6] [µM],GI50 [7] [µM],TGI [7] [µM],GI50 [8] [µM],TGI [8] [µM],GI50 [9] [µM],TGI [9] [µM],TGI [10] [µM]
Clc1ccc(OCc2nnc3n2N=C(c2ccc(Cl)cc2Cl)CS3)c(Cl)c1,29.5,> 100,31.4,> 100,22.7,51,22.5,55.4,27,91.6,28.5,98.8,28.8,95.8,14.1,31,19.3,56.3,–
CC(O)CN1C(=O)NC(Cc2ccccc2)C1=O (configuration not stated),–,–,–,> 100,–,> 100,–,> 100,–,–,–,> 100,–,> 100,–,> 100,–,> 100,–
Cc1ccc2/c(=C/c3ccc(N(C)C)cc3)c3cc(-c4ccccc4)[n+](C)n3c2c1,0.0251,3.9,0.456,4.74,0.0591,2.54,0.0836,1.9,6.41,> 100,0.305,2.92,0.0987,> 100,< 0.01,> 100,0.025,1.38,–
CC1CCCC(C(=O)/C(=C/c2cccc(Cl)c2)C(=O)C(=O)O)C1 (configuration not stated),–,–,–,> 100,–,68.5,–,> 100,–,–,–,33,–,> 100,–,–,–,> 100,> 100
Oc1c2c(c(O)c3ccccc13)=N[C@@H](c1ccccc1)[C@H](c1ccccc1)N=2,–,–,–,> 100,–,> 100,–,> 100,–,–,–,> 100,–,> 100,–,> 100,–,> 100,> 100
COc1cc(/C=C\c2ccc(O)cc2)cc(OC)c1OC,–,–,–,> 100,–,> 100,–,–,–,–,–,> 100,–,> 100,–,> 100,–,> 30,> 100
COc1ccc(-c2cc(-c3cc(Cl)ccc3Cl)nc3nc(=S)[nH]c(N)c23)cc1,24.8,> 100,20.1,51.4,24,45,22.1,48.4,20.1,45.2,20.1,37.4,15.2,41.8,14.2,44.4,47.6,> 100,–
COc1ccccc1C(=O)c1ccc2ccccc2c1,–,> 100,–,> 100,–,58.1,–,> 100,–,> 100,–,> 100,–,> 100,–,31.7,–,84.1,–
CN1CCN(C)C1c1cccc(C2N(C)CCN2C)c1,–,–,–,> 100,–,> 100,–,> 100,–,–,–,> 100,–,–,–,> 100,–,> 100,> 100
O=c1c2ccccc2c2c3c1cccc3c1cccc3c(=O)c4ccccc4c2c31,–,–,–,> 100,–,> 100,–,> 100,–,–,–,> 100,–,> 100,–,> 100,–,> 100,> 100
